In general, T/C refers to the ratio of treated to control.

“And” between values parts separate entries of the source, which are not always exact repeats. Equal entries are not always repeated.

The experiment concerns Swiss mice, Sarcoma 180 sc, mean tumor weight T/C. As to the kind of experiment: NCI In Vivo Anticancer Drug Screen. Data for tumor model Sarcoma 180 (subcutaneous) in Swiss mice. To be noted: endpoint: mean tumor weight, higher = larger tumour. The essentials:
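Transplantable tumors were established in mice, compound was given, then survival or tumor size was recorded. The treated value was divided by the vehicle-control value.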

Where [1] appears, read: dose: 1.0 mg/kg/injection, schedule: Q01DX007 (ip), vehicle: carboxymethylcellulose (CMC).
[2] abbreviates: dose: 2.0 mg/kg/injection, schedule: Q01DX007 (ip), vehicle: carboxymethylcellulose (CMC).

As to `O=C(O)Cc1ccc(C2CCCCC2)cc1`, the T/C was 120 % of control (dose: 37.5 mg/kg/injection, schedule: Q01DX007 (ip), vehicle: carboxymethylcellulose (CMC)); 115 % of control (dose: 75.0 mg/kg/injection, schedule: Q01DX007 (ip), vehicle: carboxymethylcellulose (CMC)); 80 % of control (dose: 150.0 mg/kg/injection, schedule: Q01DX007 (ip), vehicle: carboxymethylcellulose (CMC)); 70 % of control and 75 % of control (dose: 300.0 mg/kg/injection, schedule: Q01DX007 (ip), vehicle: carboxymethylcellulose (CMC)); 67 % of control (dose: 600.0 mg/kg/injection, schedule: Q01DX007 (ip), vehicle: carboxymethylcellulose (CMC)).

Take `CCCCCCCCCCCC1=C(O)C(=O)C(CC2=C(O)C(=O)C(CCCCCCCCCCC)=C(O)C2=O)=C(O)C1=O`: the T/C by setting is: (dose: 7.5 mg/kg/injection, schedule: Q01DX007 (ip), vehicle: carboxymethylcellulose (CMC)) 110 % of control; (dose: 15.0 mg/kg/injection, schedule: Q01DX007 (ip), vehicle: carboxymethylcellulose (CMC)) 85 % of control; (dose: 30.0 mg/kg/injection, schedule: Q01DX007 (ip), vehicle: carboxymethylcellulose (CMC)) 50 % of control; (dose: 60.0 mg/kg/injection, schedule: Q01DX007 (ip), vehicle: carboxymethylcellulose (CMC)) 123 % of control.

Take `CO[C@H]1C(=O)C[C@H]2[C@@H]3CC=C4C[C@@H](O)CC[C@]4(C)[C@H]3CC[C@]12C`: the T/C (dose: 2.5 mg/kg/injection, schedule: Q01DX007 (sc), vehicle: steriod suspending solution) was 92 % of control; the T/C (dose: 5.0 mg/kg/injection, schedule: Q01DX007 (sc), vehicle: steriod suspending solution) was 101 % of control; the T/C (dose: 10.0 mg/kg/injection, schedule: Q01DX007 (sc), vehicle: steriod suspending solution) is 89 % of control; the T/C (dose: 20.0 mg/kg/injection, schedule: Q01DX007 (sc), vehicle: steriod suspending solution) was 94 % of control; the T/C (dose: 40.0 mg/kg/injection, schedule: Q01DX007 (sc), vehicle: steriod suspending solution) is 93 % of control and 107 % of control; the T/C (dose: 80.0 mg/kg/injection, schedule: Q01DX007 (sc), vehicle: steriod suspending solution) is 116 % of control and 117 % of control.

With `NC(=O)c1n[se]nc1N`, the T/C by setting is: under setting [1], 65 % of control; under setting [2], 99 % of control.

On to `CCNc1nncs1`, for which the T/C is, setting by setting: (dose: 13.7 mg/kg/injection, schedule: Q01DX007 (ip), vehicle: carboxymethylcellulose (CMC)) 59 % of control; (dose: 16.37 mg/kg/injection, schedule: Q01DX007 (ip), vehicle: carboxymethylcellulose (CMC)) 97 % of control and 108 % of control; (dose: 27.5 mg/kg/injection, schedule: Q01DX007 (ip), vehicle: carboxymethylcellulose (CMC)) 58 % of control; (dose: 32.75 mg/kg/injection, schedule: Q01DX007 (ip), vehicle: carboxymethylcellulose (CMC)) 75 % of control and 98 % of control; (dose: 55.0 mg/kg/injection, schedule: Q01DX007 (ip), vehicle: carboxymethylcellulose (CMC)) 47 % of control; (dose: 110.0 mg/kg/injection, schedule: Q01DX007 (ip), vehicle: carboxymethylcellulose (CMC)) 41 % of control. Also, the T/C (dose: 131.0 mg/kg/injection, schedule: Q01DX007 (ip), vehicle: carboxymethylcellulose (CMC)) was 46 % of control and 71 % of control.

`CNNCc1ccc(C(=O)NC(N)=O)cc1`: the T/C (dose: 100.0 mg/kg/injection, schedule: Q01DX007 (ip), vehicle: saline) was 40 % of control; the T/C (dose: 125.0 mg/kg/injection, schedule: Q01DX007 (ip), vehicle: carboxymethylcellulose (CMC)) is 38 % of control; the T/C (dose: 148.0 mg/kg/injection, schedule: Q01DX007 (ip), vehicle: saline) was 42 % of control; the T/C (dose: 222.0 mg/kg/injection, schedule: Q01DX007 (ip), vehicle: saline) is 18 % of control; the T/C (dose: 250.0 mg/kg/injection, schedule: Q01DX007 (ip), vehicle: carboxymethylcellulose (CMC)) is 30 % of control; the T/C (dose: 333.0 mg/kg/injection, schedule: Q01DX007 (ip), vehicle: saline) was 37 % of control.

Consider `Nc1nc(=S)c2[nH]cnc2[nH]1`, for which the T/C (dose: 0.06 mg/kg/injection, schedule: Q#A X014 (ip), vehicle: carboxymethylcellulose (CMC)) is 72 % of control; the T/C (dose: 0.12 mg/kg/injection, schedule: Q01DX007 (ip), vehicle: carboxymethylcellulose (CMC)) is 78 % of control; the T/C (dose: 0.25 mg/kg/injection, schedule: Q01DX007 (ip), vehicle: carboxymethylcellulose (CMC)) is 82 % of control; the T/C (dose: 0.25 mg/kg/injection, schedule: Q#A X014 (ip), vehicle: carboxymethylcellulose (CMC)) is 89 % of control; the T/C (dose: 0.5 mg/kg/injection, schedule: Q01DX007 (ip), vehicle: carboxymethylcellulose (CMC)) was 97 % of control; the T/C (dose: 0.6 mg/kg/injection, schedule: Q01DX007 (ip), vehicle: carboxymethylcellulose (CMC)) is 49 % of control. The T/C runs as follows: (dose: 0.75 mg/kg/injection, schedule: Q01DX007 (ip), vehicle: carboxymethylcellulose (CMC)) 78 % of control; under setting [1], 22 % of control and 37 % of control; (dose: 1.0 mg/kg/injection, schedule: Q#A X014 (ip), vehicle: carboxymethylcellulose (CMC)) 46 % of control; (dose: 1.5 mg/kg/injection, schedule: Q01DX007 (ip), vehicle: carboxymethylcellulose (CMC)) 33 % of control; under setting [2], 37 % of control and 50 % of control; (dose: 3.0 mg/kg/injection, schedule: Q01DX007 (ip), vehicle: carboxymethylcellulose (CMC)) 25 % of control. Besides, the T/C by setting is: (dose: 4.0 mg/kg/injection, schedule: Q#A X014 (ip), vehicle: carboxymethylcellulose (CMC)) 23 % of control; (dose: 6.7 mg/kg/injection, schedule: Q01DX007 (ip), vehicle: carboxymethylcellulose (CMC)) 10 % of control and 15 % of control; (dose: 10.0 mg/kg/injection, schedule: Q01DX007 (ip), vehicle: carboxymethylcellulose (CMC)) 3 % of control; (dose: 187.5 mg/kg/injection, schedule: Q#A X014 (ip), vehicle: carboxymethylcellulose (CMC)) 58 % of control; (dose: 375.0 mg/kg/injection, schedule: Q#A X014 (ip), vehicle: carboxymethylcellulose (CMC)) 51 % of control; (dose: 750.0 mg/kg/injection, schedule: Q#A X014 (ip), vehicle: carboxymethylcellulose (CMC)) 35 % of control. In addition, the T/C (dose: 1500.0 mg/kg/injection, schedule: Q#A X014 (ip), vehicle: carboxymethylcellulose (CMC)) is 16 % of control.

Take `CC[C@]1(O)C[C@H]2CN(CCc3c([nH]c4ccccc34)[C@@](C(=O)OC)(c3cc4c(cc3OC)N(C=O)[C@H]3[C@@](O)(C(=O)OC)[C@H](OC(C)=O)[C@]5(CC)C=CCN6CC[C@]43[C@@H]65)C2)C1`: the T/C (dose: 0.12 mg/kg/injection, schedule: Q01DX007 (ip), vehicle: saline) is 57 % of control.

Turning to `c1ccn(-c2nc(-n3cccc3)nc(-n3cccc3)n2)c1`, the T/C reads like this: (dose: 31.25 mg/kg/injection, schedule: Q#A X014 (ip), vehicle: carboxymethylcellulose (CMC)) 47 % of control; (dose: 62.5 mg/kg/injection, schedule: Q#A X014 (ip), vehicle: carboxymethylcellulose (CMC)) 43 % of control; (dose: 125.0 mg/kg/injection, schedule: Q#A X014 (ip), vehicle: carboxymethylcellulose (CMC)) 46 % of control.

In the case of `C[C@]12CC[C@@H]3c4ccc(O)cc4CC[C@H]3[C@@H]1C[C@H](O)C2`, the T/C reads like this: (dose: 0.25 mg/kg/injection, schedule: Q#A X014 (sc), vehicle: steriod suspending solution) 120 % of control; (dose: 0.5 mg/kg/injection, schedule: Q01DX007 (sc), vehicle: steriod suspending solution) 110 % of control; (dose: 1.25 mg/kg/injection, schedule: Q01DX007 (sc), vehicle: steriod suspending solution) 60 % of control; (dose: 1.25 mg/kg/injection, schedule: Q#A X014 (sc), vehicle: steriod suspending solution) 99 % of control; (dose: 2.5 mg/kg/injection, schedule: Q#A X014 (sc), vehicle: steriod suspending solution) 58 % of control; (dose: 10.0 mg/kg/injection, schedule: Q#A X014 (sc), vehicle: steriod suspending solution) 73 % of control.

With `Cn1cc(NC(=O)c2cc(NC(=O)c3cc(NC=O)cn3C)cn2C)cc1C(=O)NCCC(=N)N`, the T/C runs as follows: (dose: 20.0 mg/kg/injection, schedule: Q01DX007 (sc), vehicle: water) 80 % of control; (dose: 25.0 mg/kg/injection, schedule: Q01DX007 (sc), vehicle: water) 77 % of control; (dose: 40.0 mg/kg/injection, schedule: Q01DX007 (sc), vehicle: water) 92 % of control; (dose: 50.0 mg/kg/injection, schedule: Q01DX007 (sc), vehicle: water) 64 % of control; (dose: 75.0 mg/kg/injection, schedule: Q01DX007 (sc), vehicle: water) 71 % of control.

Consider `C[C@]12CCC(=O)C=C1CC[C@H]1[C@@H]3CC[C@](O)(C(=O)CF)[C@@]3(C)C[C@H](O)[C@@]12F`, for which the T/C by setting is: (dose: 20.5 mg/kg/injection, schedule: Q#A X014 (sc), vehicle: steriod suspending solution) 54 % of control; (dose: 31.0 mg/kg/injection, schedule: Q#A X014 (sc), vehicle: steriod suspending solution) 62 % of control; (dose: 46.5 mg/kg/injection, schedule: Q#A X014 (sc), vehicle: steriod suspending solution) 48 % of control.

Values taken from PubChem BioAssay AID342 (DTP/NCI, 2004).
